“Also recorded” adds a separate entry of the source. Where two headings read alike, the source gives them in different places.
Experiments:
[1] = test system: Triticum vulgare root tips; experiment: Microscopic examination of Triticum root tips (mitotic film changes); format: in vivo; conditions: 1000 μM, 24 h contact
Procedure: Microscopic examination of Triticum vulgare root tips followed the mitotic film changes induced by the tested compounds. Observations were made after 24 h of contact of the caryopses with the test solutions. The study was made in comparison with DMSO control maintained under the same conditions as the samples. To obtain microscopic preparations, sectioning of wheat embryonic roots was carried out at about 5 mm from the tip and stained with dilute […] according to the La Cour procedure. The examination was conducted on a Euromex oxion series 110–240 V/50–60 Hz microscope with digital camera CEMEX 5 DC 5000 C and 40× and 100× lenses with cedar oil immersion (Sigma-Aldrich St. Louis, MO, USA).

[2] = test system: MCF-7 breast adenocarcinoma cells; experiment: MTS cytotoxicity assay, MCF-7; format: cell-based, human
Procedure: (§1) Therefore, the precursor acids 2a–c and corresponding pyrrolo[1,2-b]pyridazines 5a–c,f were tested for their potential cytotoxic activity. During the assays, increasing concentrations of the compounds, ranging from […], were added for 24 h or 48 h to cancer LoVo, SK-OV-3, MCF-7, and the reference HUVEC cells, previously cultured for 24 h in 96-well flat bottom plates. […] Then, MTS reagent was added, and cells were incubated for 4 h at 37 °C in a 5% CO2 humidified atmosphere. The absorbance values were spectrophotometrically read to a Dynex ELISA reader at λ = […].
(§2) For the evaluation of the in vitro potential anti-proliferative effects of treatments with the new compounds under study against solid tumor-derived cells, several compound-mediated cytotoxicity assays were performed on three adherent tumor standardized cell lines, and normal human endothelial cells, used as control: the MCF-7 human breast adenocarcinoma and SK-OV-3 human ovary adenocarcinoma cell lines were provided from European Collection of Authenticated Cell Cultures (ECACC), while LoVo, human colorectal adenocarcinoma cell line, and HUVEC human umbilical vein endothelial cells were purchased from American Type Culture Collection (ATCC).
(§3) Adherent cells were cultivated in DMEM/F12 medium added with 2 mM L-glutamine and 10% fetal bovine serum, 100 units/mL penicillin, 100 µg/mL streptomycin (Sigma Aldrich, St. Louis, MO, USA) and incubated at 37 °C in 5% CO2 humidified atmosphere. The stock solutions for cell treatments were prepared by dissolving the synthesized compounds in a minimum amount of DMSO. Working dilutions were prepared from the stock solutions in culture medium before each treatment assay. After 24 h, when cell cultures achieved around 70% confluence, treatments were applied for various periods of time with different concentrations of synthesized compounds or oncolytic drugs, used as positive controls.
(§4) Therefore, cell cultures treated with the new compounds or oncolytic drugs for 24 h or 48 h were further subjected to a colorimetric cell viability method, the MTS assay. The absorbance of probes was read, data were calculated, and percentages of cell viability were assessed.
The evaluation of the compound-induced cytotoxicity was made using the CellTiter 96 Aqueous One Solution Cell Proliferation Assay (Promega, Madison, WI, USA), a reagent that contains both MTS (3-(4,5-dimethylthiazol-2-yl)-5-(3-carboxymethoxyphenyl)-2-(4-sulfophenyl)-2H-tetrazolium, inner salt) and PES ([…], a cationic dye with high chemical stability that binds to MTS and forms a stable solution). The assay is based on the ability of the metabolically active cells to reduce the yellow tetrazolium salt MTS to a compound that is soluble in culture medium, the colored formazan, followed by the spectrophotometric evaluation of its concentration.
(§5) Briefly, 1.5 × 10^4 cancer or normal cells were cultured in 100 µL/well for 24 h. After the culture supernatants were discarded, cells were treated for additional 24 h or 48 h with increasing concentrations of new compounds or oncolytic drugs. Following the specific treatments, in each well a volume of 20 µL of coloring mixture reagent of MTS and PES was added, and then the plates were incubated with mild agitation every 20 min for 4 h at 37 °C. The color developed during incubation was spectrophotometrically quantified at λ = 492 nm using a Dynex ELISA reader (DYNEX Technologies—MRS, Chantilly, VA, USA).
(§6) Data were expressed as percentages of cell viability of the treated cells, and were calculated and compared to the untreated cells (considered 100% viable), using the formula:Cell viability (%) = (T − B)/(U − B) × 100 where T = absorbance of treated cells, U = absorbance of untreated cells, and B = absorbance of culture medium (blank), for λ = 492 nm.
The cell viability data were expressed as the mean values ± standard deviations (SD) of three different experiments (n = 3). […]

[3] = test system: SK-OV-3 ovary adenocarcinoma cells; experiment: MTS cytotoxicity assay, SK-OV-3; format: cell-based, human; conditions: Homo sapiens
Procedure: as §1, §2, §3, §4
The evaluation of the compound-induced cytotoxicity was made using the CellTiter 96 Aqueous One Solution Cell Proliferation Assay (Promega, Madison, WI, USA), a reagent that contains both MTS (3-(4,5-dimethylthiazol-2-yl)-5-(3-carboxymethoxyphenyl)-2-(4-sulfophenyl)-2H-tetrazolium, inner salt) and PES ([…], a cationic dye with high chemical stability that binds to MTS and forms a stable solution).
as §5, §6
The cell viability data were expressed as the mean values ± standard deviations (SD) of three different experiments (n = 3). […] Moreover, a parallel experiment was performed in the absence of cells, with all the concentrations of the compounds being tested for their potential interference with MTS reagents; then, their absorbance values were extracted during calculations.

In the case of `CCOC(=O)c1cc(CC)n2nc(-c3ccc(F)cc3)ccc12` [Compound 5e, Ethyl 7-ethyl-2-(4-fluorophenyl)pyrrolo[1,2-b]pyridazine-5-carboxylate], the “mitotic film / cell changes in root tips” value [1] is reported as “undulated cell walls and modified shaped nuclei; also recorded: mitoinhibition”, the viability at 400 µM ([2]; Homo sapiens, MCF7, MCF-7, 400 μM, 48 h, read-out: cell viability) is reported as 73.1% and the IC50 ([2]; Homo sapiens, MCF7, MCF-7, 24 h, read-out: IC50 MCF-7 24 h) is reported as no less than 400 µM. For the same molecule, the IC50 ([2]; Homo sapiens, MCF7, MCF-7, 48 h, read-out: IC50 MCF-7 48 h) was no less than 400 µM, the cell viability ([2]; MCF-7, 100–400 μM, 48 h) was “less than 90%” and the IC50 ([3]; SK-OV-3, 24 h, read-out: IC50 Sk-OV-3 24 h) was no less than 400 µM. For the same molecule, the IC50 ([3]; SK-OV-3, 48 h, read-out: IC50 Sk-OV-3 48 h) was no less than 400 µM.

Reference: paper PMC10380841, “Synthesis, Characterization and Cytotoxic Evaluation of New Pyrrolo[1,2-b]pyridazines Obtained via Mesoionic Oxazolo-Pyridazinones” (International Journal of Molecular Sciences, 2023)
